Measured values: patent US11318190B2, “Methods and compositions for treating liver disease” (UNITED STATES GOVERNMENT AS REPRESENTED BY THE DEPARTMENT …, priority 2017, dated 2022)

Key:
dnTGF-βRII mice [1] = experiment: dnTGF-βRII mice 12 wk (early stage PBC model) treated 1 wk by osmotic minipump; assay type: in vivo, mouse; conditions: dnTGF-βRII 12 wk; for intrahepatic bile duct mass (IBDM, CK-19): 1 wk minipump
Protocol: (§1) Briefly, we used wild-type (WT), dnTGFβRII 12 wk and dnTGFβRII 34 wk mice treated with control or SR antagonist (SCT 5-27) minipump (10 μg/kg/day) for 1 wk. Hepatic damage was shown by H&E. IBDM and cholangiocyte proliferation were measured by immunohistochemistry for CK-19 and Ki67, respectively. Biliary apoptosis was evaluated by TUNEL staining. Senescence was measured in cholangiocytes by immunofluorescence for CCL2 or p16 co-stained with CK-19 (to image bile ducts) and SA-β-Galactosidase activity. Hepatic fibrosis was assessed by qPCR for collagen-1a and α-SMA in total liver, and quantification of Sirius Red staining. Hepatic stellate cell (HSC) activation was evaluated by immunofluorescence (IF) for Syp-9. HSC senescence was evaluated by IF for CCL2 or p16 co-stained with desmin (to visualize HSCs). Secretin levels in serum and bile were measured by EIA. Bile and serum were obtained from human control, early PBC and advanced PBC patients, and secretin was evaluated by EIA.
(§2) All animal procedures were performed according to protocols approved by the Baylor Scott & White Health IACUC Committee. Transgenic mice expressing a dominant-negative form of the human transforming growth factor-beta receptor II (dnTGF-βRII) were obtained from Dr. M. Eric Gershwin at UC Davis Health (Sacramento, Calif.), and background-matched wild-type (WT, strain C57BL/6) mice were purchased from Charles River Laboratories (Wilmington, Mass.); the breeding colony is established in our animal facility. Animals were maintained in micro-isolator cages in a temperature-controlled environment with 12/12-hr light/dark cycles and fed ad libitum standard chow with free access to drinking water. Studies were performed in 12 wk-old WT mice, and 12 wk-old (mimic early stage PBC) and 32 wk-old (mimic late stage PBC) female and male dnTGF-βRII mice (25-30 gm) that were treated with either saline, secretin (Sct; 2.5 nmoles/kg body weight per day; Bachem, Torrance, Calif.) or the secretin receptor (SR) antagonist, Sec 5-27 (10 μg/kg body weight per day; Thermo Fisher Scientific, Waltham, Mass.) for 1 wk by intraperitoneally implanted osmotic minipump. Liver tissue samples and blocks (formalin-fixed, paraffin-embedded and OCT-embedded), serum, bile, cholangiocytes, and cholangiocyte supernatants (after incubation at 37° C. for 4 hr) were collected as described.
(§3) Hematoxylin and eosin (H&E) staining was performed in formalin-fixed, paraffin-embedded liver sections (4-5 μm, 3 samples from 3 different animals) to determine liver morphology. H&E stained liver sections were evaluated by a board-certified pathologist to assess the degree of lobular damage, hepatic necrosis and portal inflammation. At least 10 different portal areas were evaluated for each parameter. Liver sections were examined in a coded fashion by BX-51 light microscopy (Olympus, Tokyo, Japan) equipped with a camera (See, Mancinelli, R et al., Ischemia reperfusion of the hepatic artery induces the functional damage of large bile ducts by changes in the expression of angiogenic factors. Am J Physiol Gastrointest Liver Physiol 2015; 309:G865-873 (2015); Taffetani S et al., Prolactin stimulates the proliferation of normal female cholangiocytes by differential regulation of Ca2+-dependent PKC isoforms, BMC Physiol 7:6 (2007)).
(§4) Serum levels of alkaline phosphatase (ALP) and γ-glutamyltransferase (γGT) are commonly used to diagnose PBC (Heathcote, E J, Management of primary biliary cirrhosis. The American Association for the Study of Liver Diseases practice guidelines, Hepatology 31:1005-1013 (2000)); therefore, were measured serum levels of ALP and γGT in mouse serum samples using the Alkaline Phosphatase Assay Kit and γ-Glutamyltransferase Activity Colorimetric Assay Kit, respectively (Abcam; Cambridge, Mass.).
(§5) Early stage PBC is identified by cholangiocyte proliferation, whereas late stage PBC is characterized by ductopenia. […]

dnTGF-βRII mice [2] = experiment: dnTGF-βRII mice 32-34 wk (late stage PBC model) treated 1 wk by osmotic minipump; assay type: in vivo, mouse; conditions: for intrahepatic bile duct mass (IBDM, CK-19): 1 wk minipump
Protocol: as §1, §2, §3, §4, §5

[3] = system: human hepatic stellate cells (hHSC); experiment: hHSC activation by cholangiocyte supernatants from treated mice (qPCR); assay type: cell-based
Protocol: In vitro experiments were performed in human hepatic stellate cells (hHSC) that were purchased from ScienCell Research Laboratories (Carlsbad, Calif.) that were maintained in standard conditions.
[…] Activation of hHSCs was determined by qPCR for FN-1, TGF-β1, α-SMA, and collagen type-1a (Kennedy, L L et al., Knockout of microRNA-21 reduces biliary hyperplasia and liver fibrosis in cholestatic bile duct ligated mice, Lab Invest 96:1256-1267 (2016)).

Mdr2−/− mice = conditions: cited from earlier work
large IMCLs = experiment: Large IMCLs treated with secretin with/without LY2109761, or with TGF-β1 (Example 2); assay type: cell-based, mouse; conditions: TGF-β1 10 nM, 24 hr
From the text: Cholangiocytes were obtained by immunoaffinity separation as described herein above, using a monoclonal antibody (a gift from Dr. R. Faris, Brown University, Providence, R.I.) that is expressed by all intrahepatic cholangiocytes. HSCs from the selected groups of mice were isolated by LCM as described previously in Wu, N et al., The secretin/secretin receptor axis modulates liver fibrosis through changes in transforming growth factor-beta1 biliary secretion in mice, Hepatology (Baltimore, Md.) 64(3):865-879 (2016). Briefly, frozen liver sections (n=3, 10 μm thick) were incubated overnight with an anti-desmin (a marker of stellate cells) antibody. Then, desmin-positive cells were dissected from the slides using a LCM system Leica LMD7000 (Buffalo Grove, Ill.) and were collected before RNA extraction with the Arcturus PicoPure RNA isolation kit (Thermo Fisher Scientific CO, Mountain View, Calif.). The in vitro studies were performed in: (I) immortalized murine cholangiocyte lines derived from large cholangiocytes lining large ducts (IMCLs); and (ii) human hepatic stellate cell lines (HHSteCs; ScienCell Research Laboratories, Carlsbad, Calif.).
WT mice were treated for 1 wk with saline or secretin (Sct; 2.5 nmoles/kg body weight per day) before collecting cholangiocytes, HSCs and cholangiocyte supernatants. The levels of TGF-β1 were measured in short-term (6-hour) cultures of cholangiocytes by ELISA kits. Subsequently, we measured: (i) liver fibrosis by immunofluorescence for Col1a1 in liver sections and real-time PCR for TGF-β1, TFG-β1R, Col1a1, α-SMA and Fn1 in cholangiocytes and HSCs; and (ii) cellular senescence by immunofluorescence in liver sections for p16 and real-time PCR for p16 and p21 in cholangiocytes and HSC.
(§6) Biliary supernatants were obtained from normal and BDL WT mice and Sct^−/−, SR^−/− and Sct^−/−/SR^−/− BDL mice as well as normal WT mice treated with saline or secretin. HHSteCs were incubated with the aforementioned biliary supernatants (containing different levels of TGF-β1) for 24 hr (in the absence or presence of LY2109761) before measuring the expression of senescence and fibrosis genes by real-time PCR. Furthermore, HHSteCs were incubated with the supernatant of large IMCLs treated for 0.2% bovine serum albumin (basal) or secretin (10 nM) with/without LY2109761 for 6 hr before measuring the mRNA expression of fibrosis and senescence genes. To provide direct evidence that TGF-β1 directly modulates fibrosis and senescence of IMCLs and HHSteCs, these cells were stimulated with TGF-β1 (10 nM) for 24 hr before measuring the expression of PCNA as well as fibrosis and senescence genes by real-time PCR.

HHSteCs [4] = experiment: HHSteCs incubated with biliary/IMCL supernatants with/without LY2109761, or with TGF-β1 (Example 2); assay type: cell-based, human; conditions: direct TGF-β1 10 nM, 24 hr
Protocol: as §6

IMCLs = IMCLs treated with Sct with/without microRNA 125b mimic precursor, TGF-β1 or r-VEGFA (Example 4); assay type: cell-based, mouse; conditions: TGF-β1 10 nM or r-VEGFA 100 nM, 12 hr
Protocol: (§7) Cholangiocytes were obtained by immunoaffinity separation, Cholangiocytes were obtained by immunoaffinity separation as described herein above, using a monoclonal antibody (a gift from Dr. R. Faris, Brown University, Providence, R.I.) that is expressed by all intrahepatic cholangiocytes. Cell viability (greater than 97%) was assessed by trypan blue exclusion. HSCs were isolated by LCM as described herein above. Frozen liver sections (n=3, 10 μm thick) were incubated overnight with an antibody against desmin (marker of stellate cells). Following staining, desmin-positive HSCs were dissected from the slides by a LCM system Leica LMD7000 (Buffalo Grove, Ill.) and collected into a PCR tube before being analyzed. The RNA from HSCs was extracted with the Arcturus PicoPure RNA isolation kit (Thermo Fisher Scientific CO, Mountain View, Calif.). The in vitro studies were performed in our immortalized murine biliary cell lines (IMCLs) and human hepatic stellate cell lines (HHSteCs, Sciencell, Carlsbad, USA).
In biliary supernatants, the levels of TGF-β1 were measured by ELISA kits. […] We also evaluated by immunofluorescence the expression of VEGFR-2 in cell smears of IMCLs and HHSteCs. […]

HHSteCs [5] = experiment: HHSteCs treated with cholangiocyte supernatants with/without LY2109761, TGF-β1 or r-VEGFA (Example 4); assay type: cell-based, human; conditions: TGF-β1 10 nM or r-VEGFA 100 nM, 12 hr
Protocol: as §7
In biliary supernatants, the levels of TGF-β1 were measured by ELISA kits. HHSteCs were incubated with cholangiocyte supernatants from the selected groups of animals for 12 hr (in the absence or presence of LY2109761, 10 μM, a TGF-β1 receptor antagonist, Cayman Chemical, Ann Arbor, Mich.) before measuring the expression of VEGF-A and senescent and fibrosis genes by qPCR. To determine that Sct increases TGF-β1 levels by a microRNA 125b-dependent mechanism, IMCLs were treated with Sct (10 nM in the absence/presence of a microRNA 125b mimic precursor, 5 μM) for 12 hr before measuring TGF-β1 mRNA expression (by qPCR) and secretion by ELISA kits. To provide conclusive evidence that TGF-β1 directly modulates the function IMCLs and HHSteCs, these cells were stimulated with TGF-β1 (10 nM) for 12 hr before measuring the expression of VEGF-A and senescent and fibrosis genes by qPCR. […] We also evaluated by immunofluorescence the expression of VEGFR-2 in cell smears of IMCLs and HHSteCs. […]

[6] = vs saline treated, listed as SR antagonist
[7] = dnTGF-βRII 32/34 wk, vs saline treated
[8] = dnTGF-βRII 32/34 wk, listed as SR antagonist

15-lysine-secretin-(5-27) [SCT 5-27]
significantly reduced: collagen content / deposition (Sirius Red), hepatic fibrosis (dnTGF-βRII mice [1]; vs saline treated) | intrahepatic bile duct mass (IBDM, CK-19) (dnTGF-βRII mice [1]; vs saline treated)
decreased: biliary senescence (p16, p18, p21, CCL2) (dnTGF-βRII mice [1]; listed as SR antagonist) | intrahepatic bile duct mass (IBDM, CK-19) (dnTGF-βRII mice [2]; dnTGF-βRII 32/34 wk, vs saline treated, listed as SR antagonist) | TGF-β1/TGF-β1 receptor axis expression (Mdr2−/− mice; Mdr2−/− mice)
further increased: biliary senescence (p16, p18, p21, CCL2) (dnTGF-βRII mice [2]; dnTGF-βRII 32/34 wk) | cholangiocyte apoptosis (TUNEL) (dnTGF-βRII mice [2]; dnTGF-βRII 32/34 wk) | collagen content / deposition (Sirius Red), hepatic fibrosis (dnTGF-βRII mice [2]; [8])
reduced: HSC activation (SYP-9 staining) (dnTGF-βRII mice [1]) | biliary senescence (p16, p18, p21, CCL2) (dnTGF-βRII mice [1]) | cholangiocyte proliferation (Ki67) (dnTGF-βRII mice [1]) | liver damage (H&E: portal inflammation, inflammatory infiltration, lobular necrosis) (dnTGF-βRII mice [1]) | secretin levels (serum and bile, EIA) (dnTGF-βRII mice [1]) | Sct, SR, CFTR and AE2 expression (dnTGF-βRII mice [1]; vs saline treated) | serum levels of ALP and γGT (dnTGF-βRII mice [1]; vs saline treated) | intrahepatic bile duct mass (IBDM, CK-19) (dnTGF-βRII mice [1]; [6]) | secretin levels (serum; serum and bile) (dnTGF-βRII mice [2]; dnTGF-βRII 34 wk) | expression of FN-1, TGF-β1, α-SMA and collagen type-1a in hHSCs ([3]; cholangiocyte supernatants from treated dnTGF-βRII mice 12 wks) | hepatic fibrosis and HSC activation (Mdr2−/− mice; BDL and Mdr2−/− mouse model of PSC) | biliary mass and HSCs activation (Mdr2−/− mice; Mdr2−/− mice)
enhanced: cholangiocyte apoptosis (TUNEL-positive cholangiocytes) (dnTGF-βRII mice [1]) | HSC activation (SYP-9) (dnTGF-βRII mice [2]; dnTGF-βRII 34 wk, listed as SR antagonist) | expression of FN-1, TGF-β1, α-SMA and collagen type-1a in hHSCs ([3]; cholangiocyte supernatants from treated dnTGF-βRII mice 34 wks)
ameliorated: collagen content / deposition (Sirius Red), hepatic fibrosis (dnTGF-βRII mice [1]; [6]) | liver damage (H&E: portal inflammation, inflammatory infiltration, lobular necrosis) (dnTGF-βRII mice [1]; listed as SR antagonist)
exacerbated: cholangiocyte apoptosis (TUNEL) (dnTGF-βRII mice [2]; [8]) | liver damage (H&E) (dnTGF-βRII mice [2]; dnTGF-βRII 34 wk)
further reduced: intrahepatic bile duct mass (IBDM, CK-19) (dnTGF-βRII mice [2]; [7]) | biliary growth / cholangiocyte proliferation (dnTGF-βRII mice [2]; dnTGF-βRII 34 wk)
increased: HSC senescence (dnTGF-βRII mice [1]) | cholangiocyte apoptosis (TUNEL-positive cholangiocytes) (dnTGF-βRII mice [1]; listed as SR antagonist) | collagen content / deposition (Sirius Red), hepatic fibrosis (dnTGF-βRII mice [2]; dnTGF-βRII 32/34 wk) | biliary senescence (p16, p18, p21, CCL2) (dnTGF-βRII mice [2]; [8]) | HSC activation (SYP-9) (dnTGF-βRII mice [2]; dnTGF-βRII 34 wk)
further decrease: Sct, SR, CFTR and AE2 expression (dnTGF-βRII mice [2]; [7])

TGF-β1: transforming growth factor-β1 used to stimulate IMCLs and HHSteCs (10 nM)
decreased: PCNA mRNA expression of large IMCLs (large IMCLs) | senescence genes in HHSteCs (HHSteCs [5])
stimulates: fibrosis gene expression in HHSteCs (HHSteCs [4])
increased: expression of fibrosis and senescence genes of large IMCLs (large IMCLs) | expression of VEGF-A, fibrosis and senescence genes in IMCLs (IMCLs) | expression of VEGF-A, fibrosis genes in HHSteCs (HHSteCs [5])
reduces: senescence gene expression in HHSteCs (HHSteCs [4])
